Measurements: patent publication US12428413B2 (CHDI Foundation, Inc., priority 2019, dated 2025)
Read-outs that look alike come from different tables or passages of the source.

Tests used:
[1] = molecular target: human catalytic domain ROCK II protein (amino acids 5-554) with a N-terminal GST tag (Homo sapiens, UniProt O75116); assay: biochemical
[2] = test system: cellular ROCK activity (cofilin phosphorylation at Ser3) in A7r5 rat smooth muscle cells; assay: Cellular ROCK activity: cofilin (Ser3) phosphorylation, In-Cell Western assay; format: cell-based; details: Rattus norvegicus, 1 hour compound incubation, phospho-cofilin (Ser3), read-out: CELL_IC50
In short: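 A7r5 rat smooth muscle cells (3000/well, overnight) exposed to compound for 1 h at 37° C., then formaldehyde-fixed. Phospho-cofilin Ser3 detected by In-Cell Western with 800CW secondary antibody, read at 700 and 800 nm on an Odyssey imager.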

Chain of human catalytic domain ROCK II protein (amino acids 5-554) with a N-terminal GST tag (O75116 5-554): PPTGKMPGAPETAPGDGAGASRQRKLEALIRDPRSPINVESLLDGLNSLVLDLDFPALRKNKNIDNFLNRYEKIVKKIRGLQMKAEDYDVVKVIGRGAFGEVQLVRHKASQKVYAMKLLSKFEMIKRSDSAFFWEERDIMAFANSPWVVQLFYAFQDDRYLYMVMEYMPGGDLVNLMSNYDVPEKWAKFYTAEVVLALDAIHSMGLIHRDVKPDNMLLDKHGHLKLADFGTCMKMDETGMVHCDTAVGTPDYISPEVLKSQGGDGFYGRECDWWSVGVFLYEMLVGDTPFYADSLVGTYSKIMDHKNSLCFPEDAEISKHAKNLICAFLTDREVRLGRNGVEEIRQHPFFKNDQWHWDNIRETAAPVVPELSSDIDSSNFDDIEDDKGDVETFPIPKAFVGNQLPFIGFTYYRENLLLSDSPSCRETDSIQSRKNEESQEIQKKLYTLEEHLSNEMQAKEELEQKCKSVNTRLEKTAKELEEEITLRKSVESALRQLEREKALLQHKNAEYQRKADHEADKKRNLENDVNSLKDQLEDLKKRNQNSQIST

| Structure (SMILES) | IC50 [1] [nM] | IC50 ([2]; A7R5, 1 h) [nM] | IC50 [2] [nM] |
| --- | --- | --- | --- |
| C[C@@H](NC(=O)N1CCN(c2ccncc2F)CC1)c1cccc2c1CC(C)(C)O2 [Example 30, (R)—N-(1-(2,2-Dimethyl-2,3-dihydrobenzofuran-4-yl)ethyl)-4-(3-fluoropyridin-4-yl)piperazine-1-carboxamide] | 22.4 | 301 | – |
| C[C@@H](NC(=O)N1CCN(c2ccnc(F)c2)[C@@H](C)C1)c1cccc2occc12 [Example 119] | 10 | 411 | – |
| C[C@@H]1CN(c2ccnc(F)c2)CCN1C(=O)N[C@H](C)c1cccc2occc12 [Example 113] | 3.9 | 122 | – |
| [2H]C([2H])([2H])Oc1cccc([C@H](NC(=O)N2CCN(c3ccncc3F)C[C@H]2C)C([2H])([2H])[2H])c1 [Example 81, (R)-4-(3-Fluoropyridin-4-yl)-N—((R)-1-(3-(methoxy-d3)phenyl)ethyl-2,2,2-d3)-2-methylpiperazine-1-carboxamide] | 3.7 | 8.1 | – |
| COc1ccc(F)c([C@@H](C)NC(=O)N2CCN(c3ccncc3F)C[C@H]2C)c1 [Example 134] | 6.6 | 108 | – |
| C[C@@H](NC(=O)N1CCN(c2ccnc(F)c2)[C@@H](C)C1)c1cccc(OC(F)F)c1 [Example 120] | 59.5 | 3970 | – |
| COc1ccc(F)c(CNC(=O)N2CCN(c3ccncc3F)C[C@H]2C)c1 [Example 55, (R)—N-(2-Fluoro-5-methoxybenzyl)-4-(3-fluoropyridin-4-yl)-2-methylpiperazine-1-carboxamide] | 23.3 | 602 | – |
| COc1cccc(CN2CC[C@H]3CN(c4ccncc4F)CCN3C2=O)c1 [Example 88, (S)-2-(3-Fluoropyridin-4-yl)-7-(3-methoxybenzyl)octahydro-6H-pyrazino[1,2-c]pyrimidin-6-one] | 362 | 3800 | – |
| C[C@@H]1CN(c2ccnc(F)c2)CCN1C(=O)N[C@H](C)c1cccc2c1CCO2 [Example 114] | 3.5 | 30.3 | – |
| O=C(NCc1cccc2ncoc12)N1CCN(c2ccncc2F)CC1 [Example 39, N-(Benzo[d]oxazol-7-ylmethyl)-4-(3-fluoropyridin-4-yl)piperazine-1-carboxamide] | 54.6 | 559 | – |
| C[C@@H]1CN(c2ccnc(F)c2)CCN1C(=O)NCc1ccccc1Cl [Example 106] | 184 | 1620 | – |
| C[C@@H]1CN(c2ccncc2F)CCN1C(=O)N[C@H](C)c1cccc2c1OCO2 [Example 68, (R)—N—((R)-1-(Benzo[d][1,3]dioxol-4-yl)ethyl)-4-(3-fluoropyridin-4-yl)-2-methylpiperazine-1-carboxamide] | 4.2 | 17 | – |
| COc1cccc(CN2C[C@@H]3CN(c4ccncc4F)CCN3C2=O)c1 [Example 86, (S)-7-(3-Fluoropyridin-4-yl)-2-(3-methoxybenzyl)hexahydroimidazo[1,5-a]pyrazin-3(2H)-one] | 3210 | ≥ 5000 | – |
| C[C@@H]1CN(c2ccncc2F)CCN1C(=O)N[C@H](C)c1cccc2c1OC(F)(F)O2 [Example 67, (R)—N—((R)-1-(2,2-Difluorobenzo[d][1,3]dioxol-4-yl)ethyl)-4-(3-fluoropyridin-4-yl)-2-methylpiperazine-1-carboxamide] | 10.1 | 243 | – |
| COc1cccc([C@@H](C)NC(=O)N2CCN(c3ccncc3F)C(=O)C2)c1 [Example 100, (R)-4-(3-Fluoropyridin-4-yl)-N-(1-(3-methoxyphenyl)ethyl)-3-oxopiperazine-1-carboxamide] | 2120 | – | ≥ 5000 |
| C[C@@H](NC(=O)N1CCN(c2ccncc2F)[C@@H](C)C1)c1cccc2c1CCO2 [Example 147] | 3.2 | 23 | – |
| C[C@@H]1CN(c2ccnc(F)c2)CCN1C(=O)NCc1cccc2occc12 [Example 8, (R)—N-(Benzofuran-4-ylmethyl)-4-(2-fluoropyridin-4-yl)-2-methylpiperazine-1-carboxamide] | 22 | 676 | – |
| C[C@@H]1CN(C(=O)N[C@H](C)c2ccccc2Cl)CCN1c1ccnc(F)c1 [Example 13, (R)—N—((R)-1-(2-Chlorophenyl)ethyl)-4-(2-fluoropyridin-4-yl)-3-methylpiperazine-1-carboxamide] | 4790 | ≥ 5000 | – |
| COc1cccc([C@@H](C)NC(=O)N2CCN(c3ccnc(F)c3)C[C@H]2C)c1 [Example 1, (R)-4-(2-Fluoropyridin-4-yl)-N—((R)-1-(3-methoxyphenyl)ethyl)-2-methylpiperazine-1-carboxamide] | 6.5 | 122 | – |
| C[C@H](NC(=O)N1CCN(c2ccncc2F)C[C@H]1C)c1cccn2nccc12 [Example 62, (R)-4-(3-Fluoropyridin-4-yl)-2-methyl-N—((S)-1-(pyrazolo[1,5-a]pyridin-4-yl)ethyl)piperazine-1-carboxamide] | 108 | 490 | – |
| C[C@@H]1CN(c2ccnc(F)c2)CCN1C(=O)NCc1cccc2nn(C)cc12 [Example 11, (R)-4-(2-Fluoropyridin-4-yl)-2-methyl-N-((2-methyl-2H-indazol-4-yl)methyl)piperazine-1-carboxamide] | 32.7 | 411 | – |
| C[C@@H](NC(=O)N1CCN(c2ccncc2F)CC1)c1cccc2c1OC(F)(F)O2 [Example 36, (R)—N-(1-(2,2-Difluorobenzo[d][1,3]dioxol-4-yl)ethyl)-4-(3-fluoropyridin-4-yl)piperazine-1-carboxamide] | 88.1 | 1440 | – |
| C[C@@H]1CN(c2ccncc2F)CCN1C(=O)NCc1cccc(OC(F)F)c1 [Example 139] | 10 | 486 | – |
| COc1ncccc1CNC(=O)N1CCN(c2ccncc2F)C[C@H]1C [Example 56, (R)-4-(3-Fluoropyridin-4-yl)-N-((2-methoxypyridin-3-yl)methyl)-2-methylpiperazine-1-carboxamide] | 360 | 3050 | – |
| COc1cc([C@@H](C)NC(=O)N2CCN(c3ccncc3F)C[C@H]2C)ccc1F [Example 53, (R)—N—((R)-1-(4-Fluoro-3-methoxyphenyl)ethyl)-4-(3-fluoropyridin-4-yl)-2-methylpiperazine-1-carboxamide] | 3.5 | 33.3 | – |
| O=C(NCc1cccc(OC(F)F)c1)N1CCN(c2ccncc2F)CC1 [Example 129] | 84.5 | 3540 | – |
| COc1ccc(Cl)c([C@@H](C)NC(=O)N2CCN(c3ccnc(F)c3)C[C@H]2C)c1 [Example 3, (R)—N—((R)-1-(2-Chloro-5-methoxyphenyl)ethyl)-4-(2-fluoropyridin-4-yl)-2-methylpiperazine-1-carboxamide] | 59.9 | 2410 | – |

More lines, main results first:

| IC50 [1] [nM] | IC50 ([2]; A7R5, 1 h) [nM] | Structure (SMILES) | IC50 [2] [nM] |
| --- | --- | --- | --- |
| 2.7 | 42.2 | COc1cccc([C@@H](C)NC(=O)N2CCN(c3ccncc3Cl)C[C@H]2C)c1 [Example 155] | – |
| 7.5 | 104 | Cc1cnc2cccc([C@@H](C)NC(=O)N3CCN(c4ccncc4F)CC3)n12 [Example 34, (R)-4-(3-fluoropyridin-4-yl)-N-(1-(3-methylimidazo[1,2-a]pyridin-5-yl)ethyl)piperazine-1-carboxamide] | – |
| 46.7 | 1020 | CC(NC(=O)N1CCN(c2ccncc2F)CC1)c1cccc(F)c1Cl (single isomer, unassigned) [Example 22, N-(1-(2-Chloro-3-fluorophenyl)ethyl)-4-(3-fluoropyridin-4-yl)piperazine-1-carboxamide] | – |
| 581 | ≥ 5000 | COc1cccc([C@@H](C)NC(=O)N2CCN(c3ccncc3F)CC2)c1Cl [Example 20] | – |
| 2.9 | 7.5 | COc1cccc([C@@H](C)NC(=O)N2CCN(c3ccncc3F)C[C@H]2C)c1 [Example 43, (R)-4-(3-Fluoropyridin-4-yl)-N—((R)-1-(3-methoxyphenyl)ethyl)-2-methylpiperazine-1-carboxamide] | – |
| 4.8 | 79.8 | COc1cccc([C@@H](C)NC(=O)N2CCN(c3ccncc3F)CC2CO)c1 (stereo partly drawn) [Example 137] | – |
| 6.7 | 185 | [2H]C([2H])([2H])Oc1cccc([C@@H](C)NC(=O)N2CCN(c3ccncc3F)CC2)c1 [Example 132] | – |
| 16.3 | 248 | COc1cccc([C@@H](C)NC(=O)N2CCN(c3ccncc3F)[C@H]3C[C@H]32)c1 [Example 152] | – |
| 32.3 | 1090 | COc1cccc([C@@H](C)OC(=O)N2CCN(c3ccncc3F)CC2)c1 [Example 17, (R)-1-(3-Methoxyphenyl)ethyl 4-(3-fluoropyridin-4-yl)piperazine-1-carboxylate] | – |
| 1160 | 4310 | COc1cccc([C@H](C)NC(=O)N2CCN(c3ccncc3F)CC2)c1Cl [Example 125] | – |
| 7.6 | 122 | COc1cccc([C@@H](C)NC(=O)N2CCN(c3ccncc3F)CC2)c1 [Example 16, (R)-4-(3-fluoropyridin-4-yl)-N-(1-(3-methoxyphenyl)ethyl)piperazine-1-carboxamide] | – |
| 167 | 2440 | COc1cccc([C@@H](C)NC(=O)N2CCN(c3ccncc3F)C[C@@H]2C)c1 [Example 133] | – |
| 51.9 | 703 | COc1cccc([C@@H](C)NC(=O)N2CCN(c3ccncc3F)[C@@H]3C[C@@H]32)c1 [Example 151] | – |
| 52.3 | 749 | COc1cccc(CNC(=O)N2CCN(c3ccncc3F)CC2)c1 [Example 25, 4-(3-Fluoropyridin-4-yl)-N-(3-methoxybenzyl)piperazine-1-carboxamide] | – |
| 3.7 | 189 | Cc1cc2c([C@@H](C)NC(=O)N3CCN(c4ccncc4F)CC3)cccc2o1 [Example 31, (R)-4-(3-Fluoropyridin-4-yl)-N-(1-(2-methylbenzofuran-4-yl)ethyl)piperazine-1-carboxamide] | – |
